# Results from patent US20100075957A1, “AMINODIHYDROTHIAZINE DERIVATIVES SUBSTITUTED WITH A CYCLIC GROUP” (SHIONOGI & CO., LTD., priority 2007, published 2010).
# Target: T1, Recombinant human BACE-1 (Homo sapiens, UniProt P56817)
# T1 construct: purchased R&D Systems
# Assay: Assay of β-secretase-inhibiting activity;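 further: substrate is a peptide carrying biotin and europium cryptate, after the enzyme reaction, Streptavidin-XL665 is added and incubated 1 h at 30 °C before fluorescence reading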
# Type: biochemical
# Conditions: Recombinant human BACE-1 7.4 nM, substrate peptide 18 nM, pH 5.0, 30° C., 3 hours; Table 139; read-out: IC50
# T1 sequence (P56817 46-501): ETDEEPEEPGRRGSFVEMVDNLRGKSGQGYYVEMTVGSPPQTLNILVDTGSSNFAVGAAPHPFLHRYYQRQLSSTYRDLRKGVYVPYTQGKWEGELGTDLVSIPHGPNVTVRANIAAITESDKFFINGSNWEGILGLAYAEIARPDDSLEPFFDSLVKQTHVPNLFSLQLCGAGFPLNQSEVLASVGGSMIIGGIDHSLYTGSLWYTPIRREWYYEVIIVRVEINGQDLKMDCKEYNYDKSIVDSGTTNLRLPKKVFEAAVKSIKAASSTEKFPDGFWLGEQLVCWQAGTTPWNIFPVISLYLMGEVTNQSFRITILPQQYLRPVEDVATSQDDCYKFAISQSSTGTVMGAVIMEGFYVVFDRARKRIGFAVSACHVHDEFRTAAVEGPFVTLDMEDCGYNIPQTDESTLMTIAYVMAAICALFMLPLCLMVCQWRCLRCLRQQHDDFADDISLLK
row,Compound,IC50 [nM]
1,C[C@@]1(c2cc(NC(=O)c3ccc(OCCO)cn3)ccc2F)CCSC(N)=N1 [Compound 114],160
2,Cc1cc(SCC(=O)Nc2ccc(F)c([C@]3(C)CCSC(N)=N3)c2)nc(N)n1 [Compound 151],6770
3,COCCOCCOc1cnc(C(=O)Nc2ccc(F)c([C@]3(C)CCSC(N)=N3)c2)cn1 [Compound 164],80
4,C=CCCOc1cnc(C(=O)Nc2cccc([C@]3(C)CCSC(N)=N3)c2)cn1 [Compound 86],190
5,C[C@@]1(c2cccc(NC(=O)c3ccc(OCc4ccc(F)cc4)cn3)c2)CCSC(N)=N1 [Compound 111],180
6,Cc1ccc(NC(=O)c2cnc(Cl)cn2)cc1C1(C)CCSC(N)=N1 (centres unmarked) [Compound 141],120
7,COc1nc(Nc2ccc(F)c([C@]3(C)CCSC(N)=N3)c2)nc(OC)n1 [Compound 126],2140
8,CC(C)COc1cnc(C(=O)Nc2cccc([C@]3(C)CCSC(N)=N3)c2)cn1 [Compound 87],90
9,Cc1nc(C)c(C(=O)Nc2ccc(F)c([C@]3(C)CCSC(N)=N3)c2)s1 [Compound 12],160
10,C/C=C/COc1ccc(C(=O)Nc2cccc([C@]3(C)CCSC(N)=N3)c2)nc1 [Compound 34],100
11,CCCOc1cnc(C(=O)Nc2cccc([C@]3(C)CCSC(N)=N3)c2)cn1 [Compound 72],110
12,CCSc1cnc(C(=O)Nc2cccc([C@]3(C)CCSC(N)=N3)c2)cn1 [Compound 80],70

# Same assay, conditions: Recombinant human BACE-1 7.4 nM, substrate peptide 18 nM, pH 5.0, 30° C., 3 hours; Table 140; read-out: IC50
row,Compound,IC50 [nM]
1,Cc1nc(C(=O)Nc2ccc(F)c([C@]3(C)CCSC(N)=N3)c2)cs1 [Compound 505],30
2,Cc1cnc(C(=O)Nc2ccnc([C@]3(C)CCSC(N)=N3)c2)cn1 [Compound 551],20
3,COc1cnc(C(=O)Nc2cccc([C@]3(C)CCSC(N)=N3)n2)cn1 [Compound 589],60
4,C[C@@]1(c2ccnc(NC(=O)c3ccc(Cl)cn3)c2)CCSC(N)=N1 [Compound 598],30
5,Cc1ncc(C(=O)Nc2ccc(F)c([C@]3(C)CCSC(N)=N3)c2)s1 [Compound 508],40
6,Cn1cc(-c2cnc(C(=O)Nc3ccc(F)c([C@]4(C)CCSC(N)=N4)c3)cn2)cn1 [Compound 494],30
7,C[C@@]1(c2cc(NC(=O)c3cn4ccccc4n3)ccc2F)CCSC(N)=N1 [Compound 502],40
8,Cc1cnc(C(=O)Nc2cc([C@]3(C)CCSC(N)=N3)c3oc(C)cc3c2)cn1 [Compound 468],20

# Same assay, conditions: Recombinant human BACE-1 7.4 nM, substrate peptide 18 nM, pH 5.0, 30° C., 3 hours; Table 141; read-out: IC50
row,Compound,IC50 [nM]
1,Cc1nc(C(=O)Nc2ccc(F)c([C@@]3(C)N=C(N)SCC3(F)F)c2)co1 [Compound 664],20

# Same assay, conditions: Recombinant human BACE-1 7.4 nM, substrate peptide 18 nM, pH 5.0, 30° C., 3 hours; time-resolved fluorescence ratio 665/620; read-out: IC50 values (50% inhibitory concentration against the enzymatic activity)
row,Compound,IC50 [nM]
1,CCC/C=C/c1cnc(C(=O)Nc2ccc(F)c([C@]3(C)CCSC(N)=N3)c2)cn1 [Compound 124],≤ 1000
2,CC(C)=CCOc1ccc(C(=O)Nc2cccc([C@]3(C)CCSC(N)=N3)c2)nc1 [Compound 98],≤ 1000
3,C[C@@]1(c2cncc(NC(=O)c3ccc(Cl)cn3)n2)CCSC(N)=N1 [Compound 581],≤ 1000
4,C#CCOc1cnc(C(=O)Nc2ccc(F)c([C@]3(C)CC(C)(C)SC(N)=N3)c2)cn1 [Compound 692],≤ 1000
5,C[C@@]1(c2cccc(NC(=O)c3ccc(OCCF)cn3)c2)CCSC(N)=N1 [Compound 97],≤ 1000
6,C[C@@]1(c2cc(NC(=O)c3ccc(OCC#CCCl)cn3)ccc2F)CCSC(N)=N1 [Compound 573],≤ 1000
7,C[C@@]1(c2cc(NC(=O)c3ncccc3F)ccc2F)CCSC(N)=N1 [Compound 511],≤ 1000
8,C[C@@]1(c2cc(NC(=O)c3ccc(OCc4ccco4)cn3)ccc2F)CCSC(N)=N1 [Compound 112],≤ 1000
9,Cc1cnc(C(=O)Nc2cncc([C@]3(C)CCSC(N)=N3)c2)cn1 [Compound 550],≤ 1000
10,C[C@@]1(c2cncc(NC(=O)c3ccc(Cl)cn3)c2)CCSC(N)=N1 [Compound 152],≤ 1000
11,CC#CCOc1cnc(C(=O)Nc2cc(F)c(F)c(C3(C)CCSC(N)=N3)c2)cn1 (centres unmarked) [Compound 145],≤ 1000
12,C[C@@]1(c2cc(NC(=O)c3c[nH]nc3C3CC3)ccc2F)CCSC(N)=N1 [Compound 499],≤ 1000
13,C[C@@]1(c2cc(NC(=O)c3ncc(Cl)cc3Cl)ccn2)CCSC(N)=N1 [Compound 677],≤ 1000
14,C[C@@]1(c2cncc(NC(=O)c3ncc(Cl)cc3Cl)c2)CCSC(N)=N1 [Compound 572],≤ 1000
15,C[C@@]1(c2cc(NC(=O)c3ncccc3F)ccc2F)CCSC(N)=N1 [Compound 510],≤ 1000
16,COc1cnc(C(=O)Nc2ccc(F)c([C@]3(C)CC(C)(C)SC(N)=N3)c2)cn1 [Compound 600],≤ 1000
17,COc1cnc(C(=O)Nc2ccc(F)c([C@@]3(C)N=C(N)SCC3(C)C)c2)cn1 [Compound 647],≤ 1000
18,C[C@@]1(c2cc(NC(=O)c3cnc(NCC#N)cn3)ccc2F)CCSC(N)=N1 [Compound 701],≤ 1000
19,Cc1csc(C(=O)Nc2ccc(F)c([C@]3(C)CCSC(N)=N3)c2)c1 [Compound 533],≤ 1000
20,Cn1nc(C(F)(F)F)cc1C(=O)Nc1cccc([C@]2(C)CCSC(N)=N2)c1 [Compound 4],≤ 1000

row,Compound,IC50 [nM]
1,CC(C)c1nnsc1C(=O)Nc1ccc(F)c(C2(C)CCSC(N)=N2)c1 (centres unmarked) [Compound 520],≤ 1000
2,CC#CCOc1cnc(C(=O)Nc2cccc(C3CCSC(N)=N3)c2)cn1 (centres unmarked) [Compound 107],≤ 1000
3,CC#CCOc1ccc(C(=O)Nc2cccc([C@]3(C)CCSC(N)=N3)c2)nc1 [Compound 35],≤ 1000
4,Cc1ncc(C(=O)Nc2ccc(F)c([C@]3(C)CCSC(N)=N3)c2)s1 [Compound 508],≤ 1000
5,C[C@@]1(c2cc(NC(=O)c3nccnc3Cl)ccc2F)CCSC(N)=N1 [Compound 84],≤ 1000
6,CC1(C)C[C@@](C)(c2cc(NC(=O)c3ncc(C(F)(F)F)cc3Cl)ccc2F)N=C(N)S1 [Compound 644],≤ 1000
7,CCn1nc(C)cc1C(=O)Nc1cncc([C@]2(C)CCSC(N)=N2)c1 [Compound 479],≤ 1000
8,Cc1cc(C(=O)Nc2cncc([C@]3(C)CCSC(N)=N3)c2)n(C)n1 [Compound 476],≤ 1000
9,COCCCOc1ccc(C(=O)Nc2cccc([C@]3(C)CCSC(N)=N3)c2)nc1 [Compound 96],≤ 1000
10,C[C@@]1(c2cc(NC(=O)c3cn4cc(C#N)nc4cn3)ccc2F)CCSC(N)=N1 [Compound 697],≤ 1000
11,COc1cnc(C(=O)Nc2ccc(F)c([C@]3(C)CCSC(N)=N3)c2)c(OC)c1 [Compound 489],≤ 1000
12,C[C@@]1(c2cc(NC(=O)c3cc4ccccc4s3)ccc2F)CCSC(N)=N1 [Compound 545],≤ 1000
13,CC(C)=NOc1cnc(C(=O)Nc2ccc(F)c([C@]3(C)CCSC(N)=N3)c2)cn1 [Compound 125],≤ 1000
14,C[C@@]1(c2cncc(NC(=O)c3sccc3Br)c2)CCSC(N)=N1 [Compound 515],≤ 1000
15,CC1(C)C[C@@](C)(c2cc(NC(=O)c3ncc(Cl)cc3Cl)ccn2)N=C(N)S1 [Compound 686],≤ 1000
16,C[C@@]1(c2cc(NC(=O)c3cnc(N=[N+]=[N-])cn3)ccc2F)CCSC(N)=N1 [Compound 79],≤ 1000
17,CN1N=C(C(=O)Nc2ccc(F)c([C@]3(C)CCSC(N)=N3)c2)CCC1=O [Compound 475],≤ 1000
18,C[C@@]1(c2cccc(NC(=O)c3cnc(C(N)=O)cn3)c2)CCSC(N)=N1 [Compound 68],≤ 1000
19,Cc1cnc(C(=O)Nc2cc(F)c(F)c(C3(C)CCSC(N)=N3)c2)cn1 (centres unmarked) [Compound 143],≤ 1000
20,COc1cnc(C(=O)Nc2cncc([C@]3(C)CCSC(N)=N3)c2)c(C)c1 [Compound 564],≤ 1000

row,Compound,IC50 [nM]
1,CSc1ccc(C(=O)Nc2cccc([C@]3(C)CCSC(N)=N3)c2)nc1 [Compound 33],≤ 1000
2,COc1cc(C(=O)Nc2cccc([C@]3(C)CCSC(N)=N3)c2)n(C)n1 [Compound 18],≤ 1000
3,COc1cnc(C(=O)Nc2ccnc([C@]3(C)CCSC(N)=N3)c2)c(N)n1 [Compound 691],≤ 1000
4,CC1(c2cc(NC(=O)c3cnc(Cl)cn3)cc(F)c2F)CCSC(N)=N1 (centres unmarked) [Compound 144],≤ 1000
5,COCCOc1cnc(C(=O)Nc2cnc(Cl)c([C@]3(C)CCSC(N)=N3)c2)cn1 [Compound 583],≤ 1000
6,C[C@@]1(c2cc(NC(=O)c3ccc(OC(F)F)cn3)ccc2F)CCSC(N)=N1 [Compound 135],≤ 1000
7,Cc1cnc(C(=O)Nc2ccnc([C@]3(C)CC(C)(C)SC(N)=N3)c2)cn1 [Compound 653],≤ 1000
8,COc1cnc(C(=O)Nc2ccc(F)c([C@]3(C)CCSC(N)=N3)c2)c(F)c1 [Compound 512],≤ 1000
9,CC1(C)C[C@@](C)(c2cncc(NC(=O)c3ncc(C(F)(F)F)cc3Cl)c2)N=C(N)S1 [Compound 575],≤ 1000
10,C[C@@]1(c2cncc(NC(=O)c3ncc(C(F)(F)F)cc3Cl)c2)CCSC(N)=N1 [Compound 574],≤ 1000
11,C[C@@]1(c2cc(NC(=O)c3cnc(-c4ccoc4)cn3)ccc2F)CCSC(N)=N1 [Compound 158],≤ 1000
12,Cc1cc(C(=O)Nc2cncc([C@]3(C)CCSC(N)=N3)c2)n(C(C)(C)C)n1 [Compound 466],≤ 1000
13,Cc1nc(C(=O)Nc2ccc(F)c([C@]3(C)CC(C)(C)SC(N)=N3)c2)co1 [Compound 609],≤ 1000
14,COCCOc1cnc(C(=O)Nc2cncc([C@]3(C)CCSC(N)=N3)c2)cn1 [Compound 590],≤ 1000
15,Cc1nc(C(=O)Nc2ccc(F)c([C@]3(C)CCSC(N)=N3)c2)c(C(F)(F)F)o1 [Compound 471],≤ 1000
16,CC/C=C\COc1cnc(C(=O)Nc2cccc([C@]3(C)CCSC(N)=N3)c2)cn1 [Compound 108],≤ 1000
17,C[C@@]1(c2cc(NC(=O)c3cnc(OCC4CC4)cn3)ccc2F)CCSC(N)=N1 [Compound 121],≤ 1000
18,COCCOc1ccc(C(=O)Nc2cccc([C@]3(C)CCSC(N)=N3)c2)nc1 [Compound 95],≤ 1000
19,COCCOc1cnc(C(=O)Nc2cncc([C@]3(C)CC(C)(C)SC(N)=N3)c2)cn1 [Compound 562],≤ 1000
